Laboratory results as given in PubChem BioAssay AID270 (DTP/NCI, 2004).
Records with an inconclusive call do not appear.

Test system: BDF1 mice, s.c. Lewis lung carcinoma, T/C %
Assay: NCI In Vivo Anticancer Drug Screen. Data for tumor model Lewis Lung Carcinoma (subcutaneous) in B6D2F1 (BDF1) mice
Conditions: endpoint: mean tumor weight, higher = larger tumour
Experimental: The antitumor activity of compounds was measured in mice bearing transplantable tumors. Survival or tumor size were measured and the results are expressed as the measurement made in the treated group (T) divided by the measurement made in the vehicle treated control group (C). The tumor model used in this assay is Lewis Lung Carcinoma (subcutaneous) in B6D2F1 (BDF1) mice

| SMILES | T/C (dose: 0.2 mg/kg/injection, schedule: Q01DX011 (sc), vehicle: steriod suspending solution) | T/C (dose: 0.4 mg/kg/injection, schedule: Q01DX011 (sc), vehicle: steriod suspending solution) | T/C (dose: 0.8 mg/kg/injection, schedule: Q01DX011 (sc), vehicle: steriod suspending solution) | T/C (dose: 1.6 mg/kg/injection, schedule: Q01DX011 (sc), vehicle: steriod suspending solution) | T/C (dose: 3.25 mg/kg/injection, schedule: Q01DX011 (sc), vehicle: steriod suspending solution) | T/C (dose: 7.5 mg/kg/injection, schedule: Q01DX011 (sc), vehicle: steriod suspending solution) | T/C (dose: 15.6 mg/kg/injection, schedule: Q01DX011 (sc), vehicle: steriod suspending solution) | T/C (dose: 31.3 mg/kg/injection, schedule: Q01DX011 (sc), vehicle: steriod suspending solution) | T/C (dose: 60.0 mg/kg/injection, schedule: Q01DX011 (sc), vehicle: steriod suspending solution) | T/C (dose: 62.5 mg/kg/injection, schedule: Q01DX011 (sc), vehicle: steriod suspending solution) | T/C (dose: 90.0 mg/kg/injection, schedule: Q01DX011 (sc), vehicle: steriod suspending solution) | T/C (dose: 125.0 mg/kg/injection, schedule: Q01DX011 (sc), vehicle: steriod suspending solution) | T/C (dose: 500.0 mg/kg/injection, schedule: Q01DX011 (sc), vehicle: steriod suspending solution) | T/C (dose: 25.0 mg/kg/injection, schedule: Q01DX011 (ip), vehicle: carboxymethylcellulose (CMC)) | T/C (dose: 50.0 mg/kg/injection, schedule: Q01DX011 (ip), vehicle: carboxymethylcellulose (CMC)) | T/C (dose: 100.0 mg/kg/injection, schedule: Q01DX011 (ip), vehicle: carboxymethylcellulose (CMC)) | T/C (dose: 200.0 mg/kg/injection, schedule: Q01DX011 (ip), vehicle: carboxymethylcellulose (CMC)) |
| --- | --- | --- | --- | --- | --- | --- | --- | --- | --- | --- | --- | --- | --- | --- | --- | --- | --- |
| C[C@]12CC[C@H](O)CC1=CC[C@@H]1[C@@H]2CC[C@]2(C)c3nc4ccccc4cc3C[C@@H]12 | 104 % of control | 87 % of control | 95 % of control | 117 % of control | 93 % of control | 63 % of control | 70 % of control | 43 % of control | 95 % of control | 91 % of control | 83 % of control | 52 % of control | 77 % of control | – | – | – | – |
| OCC1=CCN2CC[C@@H](O)[C@@H]12 | – | – | – | – | – | – | – | – | – | – | – | – | – | 122 % of control | 117 % of control | 111 % of control | 106 % of control |
